Reference: US8697709B2, “Fused ring heteroaryl kinase inhibitors” (The Regents of the University of California, priority 2008, dated 2014)
Positions count from the first letter of the chain named. Where two headings read alike, the source gives them in different places.

Experiments:
[1] = target: T1, Abl (Homo sapiens, UniProt P00519); assay: In vitro kinase assay (32P peptide phosphorylation), WT Abl; assay type: biochemical
T1 sequence (P00519 242-493 limits assumed): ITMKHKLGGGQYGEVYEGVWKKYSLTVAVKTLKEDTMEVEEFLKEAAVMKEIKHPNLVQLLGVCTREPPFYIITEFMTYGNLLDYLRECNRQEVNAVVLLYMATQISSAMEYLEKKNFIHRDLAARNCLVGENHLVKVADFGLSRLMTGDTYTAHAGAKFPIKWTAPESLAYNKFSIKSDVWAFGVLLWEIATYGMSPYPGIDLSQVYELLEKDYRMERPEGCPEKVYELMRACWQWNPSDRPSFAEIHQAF

[2] = target: T2, T315I Abl (Homo sapiens, UniProt P00519, T315I); assay: In vitro kinase assay, T315I Abl; assay type: biochemical; details: Table 1b
T2 sequence (P00519 242-493 T315I limits assumed): T1 sequence (P00519 242-493 limits assumed) with T74I
Method: (§1) Kinase reactions were initiated by the addition of […] cold ATP supplemented with 5 mCi γ^32P ATP and allowed to proceed at room temperature (RT). At 10 minutes […] of the reactions were spotted onto phosphocellulose sheets (P81, Whatman) and subsequently soaked in wash buffer (1.0% (v/v) phosphoric acid). The sheets were washed five times in buffer, dried, and transferred radioactivity was measured by phosphorimaging using a TyphoonTM scanner (Molecular Dynamics). Radioactive counts were quantified using ImageQuantTM software, and titration data were fit to a sigmoidal dose response to derive IC50 values using the Prism® software package. Dose responses were based on a 12 point inhibitor titration, using 1⁄3 dilutions starting from […]. Experiments were completed 2-4 times to derive mean values.

[3] = target: c-Src (Gallus gallus, UniProt P00523); assay: In vitro kinase assay (32P peptide phosphorylation), WT Src; assay type: biochemical
[4] = target: T338G Src (Gallus gallus, UniProt P00523, T338G); assay: In vitro kinase assay, T338G Src; assay type: biochemical; details: Table 1b
Method: as §1

[5] = system: Bcr-Abl transduced BaF3 cells; assay: Cell proliferation (Resazurin) of Bcr-Abl transduced BaF3 cells; assay type: cell-based; details: two day treatment, without IL-3
Excerpt: The Bcr-Abl oncogene was transduced into BaF3 cells, rendering them IL-3-independent. “IL-3” refers to interleukin 3 which in human maps to gene locus 5q31.1, as known in the art. Recombinant IL-3 is available commercially. BaF3 is a hematopoietic cell line that is normally dependent on IL-3 for growth and proliferation. However, through expression of activated Bcr-Abl, the cells become transformed to an IL-3 independent state. In this assay, cell proliferation is directly correlated to the activity of Bcr-Abl. […] The parental BaF3 cells, but not the Bcr-Abl transduced cells, were grown in the presence of recombinant IL-3 during the time course of this experiment. After the two day treatment, cell proliferation was quantified using the dye Resazurin, which is converted into a fluorescently detectable form only when metabolized by living cells.

[6] = system: parental BaF3 cells; assay: Cell proliferation (Resazurin) of parental BaF3 cells; assay type: cell-based; details: grown with recombinant IL-3; especially at 1 mM inhibitor
Excerpt: The ability of AD57 to inhibit Bcr-Abl and T315I Bcr-Abl was examined in a cell based assay. The Bcr-Abl oncogene was transduced into BaF3 cells, rendering them IL-3-independent. “IL-3” refers to interleukin 3 which in human maps to gene locus 5q31.1, as known in the art. Recombinant IL-3 is available commercially. BaF3 is a hematopoietic cell line that is normally dependent on IL-3 for growth and proliferation. However, through expression of activated Bcr-Abl, the cells become transformed to an IL-3 independent state. In this assay, cell proliferation is directly correlated to the activity of Bcr-Abl. Wild-type Bcr-Abl, T315I Bcr-Abl, and parental BaF3 cells were treated with AD57 (Cmpd 5) at the indicated concentrations for two days. The parental BaF3 cells, but not the Bcr-Abl transduced cells, were grown in the presence of recombinant IL-3 during the time course of this experiment. After the two day treatment, cell proliferation was quantified using the dye Resazurin, which is converted into a fluorescently detectable form only when metabolized by living cells.
It is possible to inhibit the growth of BaF3 cells transduced with Bcr-Abl through non-specific inhibition mediated toxicity. Therefore, the effects of the inhibitors on the growth of parental BaF3 cells have also been measured.

[7] = target: T3, T315A Abl (Homo sapiens, UniProt P00519, T315A); assay: In vitro kinase assay, T315A Abl; assay type: biochemical; details: Table 1b
T3 sequence (P00519 242-493 T315A limits assumed): T1 sequence (P00519 242-493 limits assumed) with T74A
Method: as §1

[8] = Table 1b, read-out: IC50 WT Abl
[9] = Table 1b, read-out: IC50 WT Src

SMILES	IC50 [1, 8] [nM]	IC50 [2] [nM]	IC50 [3, 9] [nM]	IC50 ([3]; unphosphorylated kinase domain, 100 mM ATP, read-out: IC50 for c-Src) [nM]	IC50 [4] [nM]	IC50 ([1]; unphosphorylated kinase domain, 100 mM ATP, read-out: IC50 for Abl) [nM]	inhibition of growth of Bcr-Abl BaF3 cells [5]	inhibition of growth of parental BaF3 cells [6]	IC50 [7] [nM]
Nc1ncnc2c1c(-c1ccc(NC(=O)Nc3cccc(C(F)(F)F)c3)cc1)nn2C1CCCC1 [AD60, 1-(4-(4-amino-1-cyclopentyl-1H-pyrazolo[3,4-d]pyrimidin-3-yl)phenyl)-3-(3-(trifluoromethyl)phenyl)urea]	< 1000	< 1000							
CC(C)n1nc(-c2ccc(NC(=O)Nc3ccccc3)cc2)c2c(N)ncnc21 [AD58]	< 1000	< 1000	< 1000						
CC(C)n1nc(-c2ccc(NC(=O)Nc3cccc(C(F)(F)F)c3)cc2)c2c(N)ncnc21 [AD57, 1-(4-(4-amino-1-isopropyl-1H-pyrazolo[3,4-d]pyrimidin-3-yl)phenyl)-3-(3-(trifluoromethyl)phenyl)urea]	< 1000	< 1000	< 1000	25	< 1000	41	equally inhibits the growth	but not parental BaF3 cells	
CC(C)n1nc(-c2ccc(NC(=O)Nc3cccc(C(F)(F)F)c3)cc2)c2c(NC(=O)C3CCCC3)ncnc21 [AD62]	< 1000	< 1000	< 1000		< 1000				< 1000
CC(C)n1nc(-c2ccc(NC(=O)Nc3cccc(C(F)(F)F)c3)cc2)c2c(NC(=O)C3CC3)ncnc21 [AD61]	< 1000	< 1000	< 1000		< 1000				< 1000
CC(C)n1nc(-c2ccc(NC(=O)Nc3cccc(C(F)(F)F)c3)cc2)c2c(NC(=O)c3ccc(C(C)(C)C)cc3)ncnc21 [AD63]	> 5000	< 1000	> 5000		1000 to 5000				> 5000
Cn1nc(-c2ccc(NC(=O)Nc3cccc(C(F)(F)F)c3)cc2)c2c(N)ncnc21 [AD59, 1-(4-(4-amino-1-methyl-1H-pyrazolo[3,4-d]pyrimidin-3-yl)phenyl)-3-(3-(trifluoromethyl)phenyl)urea]	< 1000	< 1000							
